Assay results as given in patent US9597364B2, “Treatment of withdrawal symptoms to aid in nicotine use cessation with Passiflora incarnata” (Campbell University, priority 2011, dated 2017).

Key:
[1] = system: Male Wistar rats; conditions: 0.4 mg/kg nicotine s.c.
Procedure: Male Wistar rats (Charles River, Raleigh, N.C.) were provided with food and water ad libitum on a 12 hour light/dark cycle for 2-3 weeks before beginning any treatments. For all experiments, rats were approximately 45-65 days old and weighed between 148 and 195 g at the beginning of an experiment. Injections of nicotine or its vehicle (water) were subcutaneous (s.c.) administered at 0.4 mg/kg nicotine (Sigma Aldrich, St. Louis, Mo.) and 2 ml/kg. Injections of aqueous passion flower extract (Nature's Answer, Hauppage, N.Y.) or vehicle (1:1 glycerin:water) were intraperitoneal (i.p.) administered at 800 mg/kg and 0.16 ml/kg.
Drug-naive rats were placed individually in an open field for determination of spontaneous activity using the Limelight video tracking system (ActiMetrics, Wilmette, Ill.). Each rat was monitored in the open field for 30 minutes to determine the time course of habituation. Immediately afterward, each rat was injected with vehicle that was subsequently used for nicotine injection at 2 ml/kg and the rats were monitored for 50 minutes. Then each rat was removed from the chamber briefly to be injected s.c. with 0.4 mg/kg nicotine and monitored for another 90 minutes.
Mean velocity (in cm/s) over each 1 sec period was extracted using the LimeLight software and that data was used to calculate the average and SEM of the mean velocities for each 5 minute interval for each treatment group. Figures show the time at the end of the 5 minute period (e.g., 10 minutes is the 5-10 minute interval). In the preliminary assay of nicotine versus vehicle, there were 6 rats and in the chronic nicotine study there were 8-10 rats in each group.

[2] = system: Male Wistar rats; test: Effect of passion flower extract on nicotine sensitization (expression of motor sensitization, open field); type: in vivo, rat; conditions: 0.4 mg/kg s.c. nicotine days 1-4, challenge day 5
Procedure: To produce nicotine sensitization, rats were injected once/day for 4 consecutive days with either nicotine or vehicle. On day 5, known as the test day, rats were divided into four groups; half of those that had received vehicle on days 1-4 were pre-treated with passion flower extract (vehicle-passion flower group) and the other half with vehicle (vehicle-vehicle group). Analogously, half of the rats that received nicotine on days 1-4 received a pre-treatment of i.p. 1:1 water:glycerin (nicotine-vehicle group) on day 5, while the other half was given a pre-treatment of i.p. passion flower extract (nicotine-passionflower group). Each rat was monitored in the open field for 100 consecutive minutes, starting approximately 23 hours after the day 4 nicotine treatment. Before any injections on day 5, rats were placed in the activity chambers until an injection of passion flower extract or vehicle at 25 minutes, then monitored for another 25 minutes, at which point all rats received an injection of nicotine and were monitored for 50 additional minutes.

## CN1CCCC1c1cccnc1 (stereo not shown) [nicotine]
[1]
  time of peak activity after injection: 5 to 15 min
[1]; intervals between 10 and 35 minutes except 15-20 minutes, 2-way ANOVA, Bonferroni p<0.05
  activity compared with vehicle treatment: significantly different from vehicle treatment
[1]; vehicle average 0.8±0.1 cm/s
  spontaneous activity (velocity) during the 10-35 minute intervals, average: 1.9±0.2 cm/s
[2]
  activity of nicotine-sensitized group (nicotine-vehicle) after challenge dose of nicotine, compared with vehicle-vehicle group: significantly greater activity than the vehicle-vehicle group
